Patent US11124516B2, “Pyrrolo[1,2-A]pyrimidinyl carboxamide compounds and their use in the treatment of medical disorders” (Bial—Biotech Investments, Inc., priority 2016, dated 2021)
≈ marks a conversion by molar mass, not a printed value.

System: not listed separately
Experiment: Compound solubility in water
Format: physicochemical
Conditions: not given

| Compound | Compound Solubility in Water [µg/mL] | solubility [µg/mL] |
| --- | --- | --- |
| COc1ccccc1[C@H](C)NC(=O)c1ccn2c(C)cc(C)nc12 [IV-27] |  | 3 (≈ 9.28 µM) |
| Cc1cc(C)n2ccc(C(=O)N[C@@H](C)c3cccc(Cl)c3)c2n1 [IV-28] |  | 0.7 (≈ 2.14 µM) |
| COc1ccccc1[C@@H](C)NC(=O)c1ccn2c(C)cc(C)nc12 [IV-29] |  | 2.3 (≈ 7.11 µM) |
| Cc1cc(C)n2ccc(C(=O)NC(C)c3ccc4ccccc4c3)c2n1 (stereo not drawn) [IV-31] |  | 0.2 (≈ 0.582 µM) |
| COc1cccc([C@H](C)NC(=O)c2ccn3c(C)cc(C)nc23)c1 [IV-33] |  | 9.4 (≈ 29.1 µM) |
| Cc1cc(C)n2ccc(C(=O)NC(C)(c3ccccc3)c3ccccc3)c2n1 [IV-39] |  | 0.8 (≈ 2.17 µM) |
| Cc1cc(C)n2ccc(C(=O)NC(C)(C)c3cccc(Cl)c3)c2n1 [IV-40] |  | 1.5 (≈ 4.39 µM) |
| Cc1cc(C)n2ccc(C(=O)NC(C)c3cccc4ccccc34)c2n1 (stereo not drawn) [IV-47] | 0.7 |  |
| Cc1cc(C)n2ccc(C(=O)NC(C)(C)c3cccc4ccccc34)c2n1 [IV-48] |  | 0.6 (≈ 1.68 µM) |
| CCOc1ccc(C(CC)NC(=O)c2ccn3c(C)cc(C)nc23)cc1F (stereo not drawn) [IV-51] |  | 0.3 (≈ 0.812 µM) |
| Cc1cc(C)n2ccc(C(=O)NC(CC(C)C)c3cccnc3)c2n1 (stereo not drawn) [IV-52] |  | 17.3 (≈ 51.4 µM) |
| Cc1cc(C)n2ccc(C(=O)NC(C)c3cccc4c3OCCCO4)c2n1 (stereo not drawn) [IV-53] |  | 5.1 (≈ 14 µM) |

The remaining lines, values ahead:

| Compound Solubility in Water [µg/mL] | solubility [µg/mL] | Compound |
| --- | --- | --- |
| 0.2 |  | Cc1cc(C)n2ccc(C(=O)NC(C)c3cccc4ccccc34)c2n1 (stereo not drawn) [IV-26] |
|  | 2.6 (≈ 8.46 µM) | Cc1ccc([C@H](C)NC(=O)c2ccn3c(C)cc(C)nc23)cc1 [IV-30] |
|  | 7.8 (≈ 24.1 µM) | COc1cccc([C@@H](C)NC(=O)c2ccn3c(C)cc(C)nc23)c1 [IV-32] |
|  | 0.5 (≈ 1.44 µM) | Cc1cc(C)n2ccc(C(=O)NC(CC3CCC3)c3ccccc3)c2n1 (stereo not drawn) [IV-41] |
|  | 1.1 (≈ 3.17 µM) | Cc1cccc(C2CC2C(C)NC(=O)c2ccn3c(C)cc(C)nc23)c1 (stereo not drawn) [IV-42] |
|  | 2 (≈ 6.22 µM) | CCc1ccc(C(C)NC(=O)c2ccn3c(C)cc(C)nc23)cc1 (stereo not drawn) [IV-44] |
|  | 5.7 (≈ 16.9 µM) | Cc1cc(C)n2ccc(C(=O)NC(C)c3ccc4c(c3)OCO4)c2n1 (stereo not drawn) [IV-45] |
|  | 0.4 (≈ 1.22 µM) | Cc1cc(C)n2ccc(C(=O)N[C@@H](C)c3ccc(Cl)cc3)c2n1 [IV-46] |
|  | 2.1 (≈ 6.06 µM) | Cc1cc(C)n2ccc(C(=O)NC(C)c3cn(C)c4ccccc34)c2n1 (stereo not drawn) [IV-49] |
|  | 24.7 (≈ 80.1 µM) | CCC(NC(=O)c1ccn2c(C)cc(C)nc12)c1cccnc1 (stereo not drawn) [IV-50] |

Molecular target: T1, glucocerebrosidase (Gcase) (Homo sapiens, UniProt P04062)
T1 sequence (P04062 40-536): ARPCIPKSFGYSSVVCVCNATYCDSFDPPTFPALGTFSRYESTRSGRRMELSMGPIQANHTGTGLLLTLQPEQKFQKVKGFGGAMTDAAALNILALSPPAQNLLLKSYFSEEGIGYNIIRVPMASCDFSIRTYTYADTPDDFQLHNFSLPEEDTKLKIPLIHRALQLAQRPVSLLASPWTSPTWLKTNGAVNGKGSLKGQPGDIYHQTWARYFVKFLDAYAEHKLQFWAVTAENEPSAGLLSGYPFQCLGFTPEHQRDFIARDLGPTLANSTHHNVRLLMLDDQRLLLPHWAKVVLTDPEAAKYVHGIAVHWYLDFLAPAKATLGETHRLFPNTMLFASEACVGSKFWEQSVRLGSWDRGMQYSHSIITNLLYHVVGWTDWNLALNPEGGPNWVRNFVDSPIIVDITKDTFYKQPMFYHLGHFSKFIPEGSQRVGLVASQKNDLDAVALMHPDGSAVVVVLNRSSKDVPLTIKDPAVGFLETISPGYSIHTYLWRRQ
Experiment: Glucocerebrosidase (Gcase) activation assay, 4-methylumbelliferyl-beta-D-glucopyranoside substrate, fluorescence
Format: biochemical
Conditions: 0.25 h, pH 4.7, test compound at 0.1 μM, 10 nM GCase, 100 nM saposin C, read-out: Percent Gcase Activation 0.1 μM Test Compound
Procedure, shortened: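 10 nM GCase with 100 nM saposin C in Triton/phosphatidylserine micelles (citrate-phosphate, pH 4.7), pre-incubated 30 min at room temperature with compound, then 2 mM 4-methylumbelliferyl-β-D-glucoside stock mixed 1:1; 15 min reaction, stopped with glycine pH 12.5, fluorescence at 365/440 nm. Activation scored at 1.0 and 0.1 μM; 8-point curves from 5 μM top.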

| Compound | activation at 0.1 µM [%] |
| --- | --- |
| COc1ccccc1[C@H](C)NC(=O)c1ccn2c(C)cc(C)nc12 [IV-27] | > 20 |
| Cc1cc(C)n2ccc(C(=O)N[C@@H](C)c3cccc(Cl)c3)c2n1 [IV-28] | 10 to 20 |
| COc1ccccc1[C@@H](C)NC(=O)c1ccn2c(C)cc(C)nc12 [IV-29] | 10 to 20 |
| Cc1cc(C)n2ccc(C(=O)NC(C)c3ccc4ccccc4c3)c2n1 (stereo not drawn) [IV-31] | > 20 |
| COc1cccc([C@H](C)NC(=O)c2ccn3c(C)cc(C)nc23)c1 [IV-33] | 10 to 20 |
| Cc1cc(C)n2ccc(C(=O)NC(C)(c3ccccc3)c3ccccc3)c2n1 [IV-39] | 10 to 20 |
| Cc1cc(C)n2ccc(C(=O)NC(C)(C)c3cccc4ccccc34)c2n1 [IV-48] | > 20 |
| CCOc1ccc(C(CC)NC(=O)c2ccn3c(C)cc(C)nc23)cc1F (stereo not drawn) [IV-51] | > 20 |
| Cc1cc(C)n2ccc(C(=O)NC(CC(C)C)c3cccnc3)c2n1 (stereo not drawn) [IV-52] | < 10 |
| Cc1cc(C)n2ccc(C(=O)NC(C)c3cccc4c3OCCCO4)c2n1 (stereo not drawn) [IV-53] | 10 to 20 |

Other lines, results leading:

| activation at 0.1 µM [%] | Compound |
| --- | --- |
| 10 to 20 | Cc1ccc([C@H](C)NC(=O)c2ccn3c(C)cc(C)nc23)cc1 [IV-30] |
| 10 to 20 | COc1cccc([C@@H](C)NC(=O)c2ccn3c(C)cc(C)nc23)c1 [IV-32] |
| > 20 | Cc1cc(C)n2ccc(C(=O)NC(CC3CCC3)c3ccccc3)c2n1 (stereo not drawn) [IV-41] |
| > 20 | Cc1cccc(C2CC2C(C)NC(=O)c2ccn3c(C)cc(C)nc23)c1 (stereo not drawn) [IV-42] |
| > 20 | CCc1ccc(C(C)NC(=O)c2ccn3c(C)cc(C)nc23)cc1 (stereo not drawn) [IV-44] |
| < 10 | Cc1cc(C)n2ccc(C(=O)NC(C)c3ccc4c(c3)OCO4)c2n1 (stereo not drawn) [IV-45] |
| > 20 | Cc1cc(C)n2ccc(C(=O)N[C@@H](C)c3ccc(Cl)cc3)c2n1 [IV-46] |
| 10 to 20 | Cc1cc(C)n2ccc(C(=O)NC(C)c3cn(C)c4ccccc34)c2n1 (stereo not drawn) [IV-49] |
| < 10 | CCC(NC(=O)c1ccn2c(C)cc(C)nc12)c1cccnc1 (stereo not drawn) [IV-50] |

Same assay, conditions: 0.25 h, pH 4.7, test compound at 1.0 μM, 10 nM GCase, 100 nM saposin C, read-out: Percent Gcase Activation 1 μM Test Compound

| Compound | activation at 1 µM [%] |
| --- | --- |
| COc1ccccc1[C@H](C)NC(=O)c1ccn2c(C)cc(C)nc12 [IV-27] | > 60 |
| Cc1cc(C)n2ccc(C(=O)N[C@@H](C)c3cccc(Cl)c3)c2n1 [IV-28] | > 60 |
| COc1ccccc1[C@@H](C)NC(=O)c1ccn2c(C)cc(C)nc12 [IV-29] | > 60 |
| Cc1cc(C)n2ccc(C(=O)NC(C)c3ccc4ccccc4c3)c2n1 (stereo not drawn) [IV-31] | > 60 |
| COc1cccc([C@H](C)NC(=O)c2ccn3c(C)cc(C)nc23)c1 [IV-33] | > 60 |
| Cc1cc(C)n2ccc(C(=O)NC(C)(c3ccccc3)c3ccccc3)c2n1 [IV-39] | > 60 |
| Cc1cc(C)n2ccc(C(=O)NC(C)(C)c3cccc4ccccc34)c2n1 [IV-48] | > 60 |
| CCOc1ccc(C(CC)NC(=O)c2ccn3c(C)cc(C)nc23)cc1F (stereo not drawn) [IV-51] | > 60 |
| Cc1cc(C)n2ccc(C(=O)NC(CC(C)C)c3cccnc3)c2n1 (stereo not drawn) [IV-52] | 30 to 60 |
| Cc1cc(C)n2ccc(C(=O)NC(C)c3cccc4c3OCCCO4)c2n1 (stereo not drawn) [IV-53] | > 60 |

Results, then the compound that gave them:

| activation at 1 µM [%] | Compound |
| --- | --- |
| > 60 | Cc1ccc([C@H](C)NC(=O)c2ccn3c(C)cc(C)nc23)cc1 [IV-30] |
| > 60 | COc1cccc([C@@H](C)NC(=O)c2ccn3c(C)cc(C)nc23)c1 [IV-32] |
| > 60 | Cc1cc(C)n2ccc(C(=O)NC(CC3CCC3)c3ccccc3)c2n1 (stereo not drawn) [IV-41] |
| > 60 | Cc1cccc(C2CC2C(C)NC(=O)c2ccn3c(C)cc(C)nc23)c1 (stereo not drawn) [IV-42] |
| > 60 | CCc1ccc(C(C)NC(=O)c2ccn3c(C)cc(C)nc23)cc1 (stereo not drawn) [IV-44] |
| 30 to 60 | Cc1cc(C)n2ccc(C(=O)NC(C)c3ccc4c(c3)OCO4)c2n1 (stereo not drawn) [IV-45] |
| > 60 | Cc1cc(C)n2ccc(C(=O)N[C@@H](C)c3ccc(Cl)cc3)c2n1 [IV-46] |
| > 60 | Cc1cc(C)n2ccc(C(=O)NC(C)c3cn(C)c4ccccc34)c2n1 (stereo not drawn) [IV-49] |
| 30 to 60 | CCC(NC(=O)c1ccn2c(C)cc(C)nc12)c1cccnc1 (stereo not drawn) [IV-50] |

Same assay, conditions: test compound at 0.1 μM; 10 nM GCase, 100 nM saposin C, pH 4.7

| Compound | Percent Gcase Activation 0.1 μM Test Compound |
| --- | --- |
| Cc1cc(C)n2ccc(C(=O)NC(C)c3cccc4ccccc34)c2n1 (stereo not drawn) [IV-26] | ** (Gcase activation in the range of 10% up to 20%) |
| Cc1cc(C)n2ccc(C(=O)NC(C)(C)c3cccc(Cl)c3)c2n1 [IV-40] | ** (Gcase activation in the range of 10% up to 20%) |
| Cc1cc(C)n2ccc(C(=O)NC(C)c3cccc4ccccc34)c2n1 (stereo not drawn) [IV-47] | *** (greater than 20% Gcase activation) |

Same assay, conditions: test compound at 1.0 μM; 10 nM GCase, 100 nM saposin C, pH 4.7

| Percent Gcase Activation 1 μM Test Compound | Compound |
| --- | --- |
| +++ (Gcase activation greater than 60%) | Cc1cc(C)n2ccc(C(=O)NC(C)c3cccc4ccccc34)c2n1 (stereo not drawn) [IV-26] |
| +++ (Gcase activation greater than 60%) | Cc1cc(C)n2ccc(C(=O)NC(C)(C)c3cccc(Cl)c3)c2n1 [IV-40] |
| +++ (Gcase activation greater than 60%) | Cc1cc(C)n2ccc(C(=O)NC(C)c3cccc4ccccc34)c2n1 (stereo not drawn) [IV-47] |
